Measured values: patent US20240173327A1, “NEW TREATMENT” (Verona Pharma PLC, priority 2022, published 2024)

Tested on: patients aged 40-80 years with moderate to severe COPD
Experiment: Multi-centre, randomized, double-blind, placebo-controlled clinical study of nebulised ensifentrine in COPD (FEV1 spirometry)
Type: in vivo
Settings: for Average change in baseline FEV1 (AUC)0-12 h at Week 12: 3 mg BID by nebuliser
Procedure: A clinical study was conducted to determine the efficacy of ensifentrine in treating COPD compared with placebo. Ensifentrine was administered by nebuliser at a dose of 3 mg twice daily (BID) for 24 weeks. The study was a multi-centre, randomized, double-blind, parallel-group, placebo-controlled trial with around 800 patients and 5:3 randomization.
The study population included patients aged 40-80 years with moderate to severe COPD (FEV1 30%-70% p.n., FEV1/forced vital capacity (FVC) ratio <0.7, with mMRC≥2). The randomization stratified (a) the use of stable background maintenance LAMA or LABA therapy use (approx. 50%. yes or no) and (b) cigarette smoking (current or former). Inhaled corticosteroid (ICS) maintenance therapy was permitted in up to 20% of patients under certain provisions.
The primary endpoint of the study was change from baseline in average FEV1 area under the curve (AUC)0-12 h post-dose at week 12. Secondary endpoints of the study included: peak FEV1 over 4 hours post-dose at Week 12; morning trough FEV1 at Week 12; and other endpoints including moderate/severe COPD exacerbations frequency over 24 Weeks.
COPD severity is derived as follows: mild: 80%<=FEV1, moderate: 50%<=FEV1<80% predicted, severe: 30%<=FEV1<50% predicted and very severe: FEV1<30% predicted, post bronchodilator dose at Screening.
Baseline FEV1 is the mean of the two measurements taken before study medication on the day of first dosing, i.e. ≤40 minutes and just prior to dosing, both pre-dose on day 1.
Average FEV1 AUC0-12 h is defined as area under the curve over 12 hours of the FEV1, divided by 12 hours.
The investigational product and placebo were provided in 2.5 mL unit dose format in an ampule and administered via a nebuliser.

COc1cc2c(cc1OC)-c1c/c(=N\c3c(C)cc(C)cc3C)n(CCNC(N)=O)c(=O)n1CC2 [Ensifentrine, N-(2-{(2E)-9,10-dimethoxy-4-oxo-2-[(2,4,6-trimethylphenyl)imino]-6,7-dihydro-2H-pyrimido[6,1-a]isoquinolin-3(4H)-yl}ethyl)urea]
Improvement in lung function (all subgroups of COPD patients in the study): statistically significant | Improving lung function in moderate COPD (moderate COPD patients): particularly effective | Average change in baseline FEV1 (AUC)0-12 h at Week 12 (patients with moderate COPD): 139 mL | Average change in baseline FEV1 (AUC)0-12 h at Week 12 (patients with severe COPD): 45 mL
